Reference: patent US20090023637A1, “Methods for detecting and treating interstitial cystitis” (priority 2006, published 2009)

Assays:
[1] = system: rat bladder; assay: Evaluation of bladder overactivity in rodents (urodynamics), Example 2; assay type: in vivo, Sprague-Dawley rats; details: intravesical infusion; TF 15 mg/mL alone or mixed 1:1 with unmodified THP or THP-d 10 mg/ml, followed by 400 mM KCl for 30 min
Method: After a few days of acclimatization, adult male SD rats underwent urodynamics evaluation of bladder hyperactivity before and after intravesical infusion of a test substance^8 (TF or TF plus unmodified THP or TF plus THP-d) followed by intravesical KCl. The procedure for the in vivo rat study was performed as described previously.^23
After baseline measurements of pressure threshold, peak pressure, frequency of contractions, inter-contractile interval, and percentage of nonvoiding contractions (NVC) were recorded as previously described,^23 rats were infused with the test solution. One group of animals received an infusion of TF (15 mg/mL). To test the effect of desialylation on the ability of THP to attenuate the bladder hyperactivity induced by TF and KCl, second and third groups of animals received an infusion of a mixture of unmodified THP or THP-d 10 mg/ml and TF (15 mg/ml) mixed in a ratio of 1:1.
Infusion of the test solution was followed by infusion of 400 mM KCl for 30 min^8 and urodynamics measurements were repeated.

[2] = system: rat bladder; assay: Evaluation of bladder overactivity in rodents (urodynamics), Example 4; assay type: in vivo, Sprague-Dawley rats; details: intravesical infusion; PS 30 mg/mL, toxic factor 15 mg/mL, or PPS 10 mg/ml + toxic factor 15 mg/ml, followed by 400 mM KCl for 30 minutes
Text: (§1) After a few days of acclimatization, three groups (n=9 each) of adult male Sprague-Dawley rats (325-350 g) underwent urodynamics evaluation of bladder hyperactivity before and after intravesical infusion of a test substance (PS, urinary toxic factor, or toxic factor plus PPS) followed by intravesical KCl.^4
The procedure was as follows: The rats were anesthetized with a subcutaneous injection of urethane (1.2 g/Kg) and a 1 cm incision made along the centerline of the lower ventral abdomen. […] During the continuous filling bladder cystometry, the pressure was recorded with the transducer using the program LabView (National Instruments, TX).
To induce hyperactivity, the bladder was first infused with warm 0.9% saline (37° C.) at 40 μL/min (2.4 mL/hr) and at least 20 minutes of stable voiding cycles recorded during infusion. The pressure threshold (PT, pressure at which voiding initializes) and peak pressure (PP, pressure maximum or amplitude of bladder contractions) were recorded. Frequency of contractions and inter-contractile interval (ICI) were recorded, along with the percentage of non-voiding contractions (% NVC, contractions where the PP is greater than 2 cm H2O and less than the TP, thus not resulting in a void). […]

[3] = system: rat bladder; assay: Evaluation of bladder overactivity in rodents (urodynamics, KCl infusion after test substance), Example 1; assay type: in vivo, Sprague-Dawley rats; details: intravesical infusion; TF 15 mg/mL or THP 10 mg/ml + TF 15 mg/ml 1:1, followed by 400 mM KCl for 30 minutes
Text: as §1, with “two” for “three”, “(TF” for “(PS, urinary toxic factor,”, “TF” for “toxic factor”, “THP)” for “PPS)”, “KCl.^8 The procedure was as follows.” for “KCl.^4”
The rats were anesthetized with a subcutaneous injection of urethane (1.2 g/Kg) and a 1 cm incision was made along the centerline of the lower ventral abdomen. Once the bladder was exteriorized, a 22 gauge (0.7 mm) catheter (Intracath, Becton-Dickinson, OH) was inserted into the bladder dome and sutured in place using a purse string suture with 4.0 tapered prolene suture. The bladder was returned to the abdomen, with the line escaping through the incision. […] During the continuous filling bladder cystometry, the pressure was recorded with the transducer using the program LabView (National Instruments, TX).
To induce hyperactivity, the bladder was first infused with warm (37° C.) 0.9% saline or 400 mM KCl (29.8 mg/mL, Abbott Laboratories, IL) at 40 μL/min (2.4 mL/hr) and at least 20 minutes of stable voiding cycles were recorded during infusion. The pressure threshold (PT, pressure at which voiding initializes) and peak pressure (PP, pressure maximum or amplitude of bladder contractions) were recorded. […]

[4] = system: human bladder cells (HTB4); assay: Cytotoxicity assay, unmodified versus desialylated THP, Example 2
Method: The TF obtained from 2 different pooled urine samples (TF1, TF2) was tested for cytotoxicity using the CellTiter96 Aqueous One Solution Proliferation Assay™ (Promega Corp, Madison, Wis.). Rat urothelial target cells and human HTB4 urothelial cells were plated in 96-well tissue culture plates (Nunclon™) in triplicate (50,000 cells/well). Cells had been maintained in Ham's-M199 tissue culture media supplemented with 10% fetal calf serum (FCS)+antibiotics (Pen-Strep).
For cytotoxicity assay, cells were harvested from seed flasks, washed free of trypsin-EDTA, and resuspended in DME media (without phenol red indicator) −1% FCS (assay media). An aliquot of the cell suspension was counted in a hemocytometer and diluted with assay media to a concentration of 0.5×10^6 cells/ml, from which 100 μl (5×10^4 cells) were added to each well in a 96-well microtiter plate. […] Dose response data was determined beforehand for the TF preparations. […]
After overnight incubation at 37° C., the target cells were washed twice with DME alone (200 μl/well) and fresh DME added to each well (90 μl). Then a tetrazolium compound (MTS-Owen's Reagent) combined with an electron coupling reagent (PES) was added (10 μl/well) per kit protocol and absorbance measured in a plate reader after 30 min incubation at 490 nm and at 630 nm after blanking the plate to DME media containing the tetrazolium compound. […]

[5] = THP zeta potential (mV) measurements; assay type: physicochemical; details: 0.01M NaCl buffer, pH 7.0 at 25° C.; n=6 in each group
Method: Surface charge properties (zeta potential) are measured for THP samples from patients (n=6) and controls (n=6). THP (Biomedical Technologies, Inc.) and fetuin and asialofetuin (Sigma Chemical Co.) standards (50 μg) are similarly measured. Zeta potential and size measurements are made with a Zetasizer Nano ZS instrument and a CGS-3 Goniometer system (Malvern Instruments Inc., Southborough, Mass.) with ancillary software version 4.0. All zeta potential measurements are conducted on rehydrated samples in 0.01M NaCl buffer, pH 7.0 at 25° C., after centrifugation followed by filtration ([…]) to remove any aggregates. Measurements are made in triplicate and the results analyzed by Student's t test for significance.

Compound: [Cl-].[K+] [KCl]
- NVC/minute (nonvoiding contractions) [1]: 0.25 ± 0.064 NVC/minute
- NVC/minute (nonvoiding contractions) [2]: 0.25 ± 0.064 NVC/minute
- NVC/minute (nonvoiding contractions) [3]: 0.25 ± 0.064 NVC/minute

Compound: THP-d: THP desialylated by mild acid hydrolysis in 2.5M acetic acid, 3 hr at 82° C.
- Average cytotoxicity (%) ([4]; HTB4 cells 5 × 10^4/well, THP or THP-d mixed with TF 60 min, overnight incubation, relative to media controls): 13.4%

Compound: control THP: THP isolated from urine of healthy control subjects
- zeta potential [5]: −28.0±2.4 mV

Compound: protamine sulfate
- NVC/minute (nonvoiding contractions) [2]: 1.733 ± 0.55 NVC/minute
- Cytotoxicity LD50 ([4]; footnote to Table 3, known cytotoxic agent): †Cytotoxicity of protamine sulfate, a known cytotoxic agent: LD50 = ~20 μg
